These results are taken from patent US11779628B2, “Use of cell-permeable peptide inhibitors of the JNK signal transduction pathway for the treatment of various diseases” (Xigen Inflammation Ltd., priority 2014, dated 2023).

Data set [1] is described as follows: Phase I pharmacokinetics after single iv infusion. Conditions: human, in vivo. The protocol: The primary objective of the study was to assess the safety and tolerability of XG-102 following intravenous (iv) infusion of single escalating doses of XG-102 to healthy male volunteers. The secondary objective of the study was to assess the pharmacokinetics of XG-102 following iv infusion of single escalating doses of XG-102 to healthy male volunteers. Doses were administered as a 60 minute iv infusion. For control purposes, placebo iv infusion was administered to control subjects. This was a single-centre, randomized, double blind, placebo controlled, ascending single dose, sequential group study. […] Screening was performed in the 3-week period prior to dosing. Dosing occurred on Day 0 for each subject. […] Data for all subjects were included in the safety analyses; data for all subjects who received XG-102 were included in the pharmacokinetic analyses.

In a further data set the test system is rats. Briefly: Ocular MTD studies, sub-conjunctival administration. Format: in vivo, rat. An excerpt:
(§1) Despite technical advances in ocular surgery, the physical trauma of this procedure continues to induce post-operative ocular inflammation warranting treatment. In ocular tissue, arachidonic acid is metabolized by cyclooxygenase (COX) to prostaglandins (PG) which are the most important lipid-derived mediators of inflammation. Surgical trauma causes a trigger of the arachidonic acid cascade which in turn generates PGs by activation of COX-1 and COX-2. Phospholipids in the cell membrane are the substrate for phospholipase A to generate arachidonic acid from which a family of chemically distinct PGs and leukotriens are produced. The ‘golden standard’ for the treatment of ocular inflammation are topical corticosteroids and/or Non-Steroidal Anti-inflammatory Drugs (NSAIDs). Side effects reported with (short-term) corticosteroid use include cataract formation, increased Intra Ocular Pressure (IOP), increased susceptibility to viral infections and retardation of the corneal epithelial and stromal wound healing. In addition, prolonged treatment with corticosteroids have been known to induce systemic side effects such as glucose impairment, hypertension, development of glaucoma, visual acuity defects, loss of visual field, and posterior subcapsular cataract formation. […]

Another data set has as its system rabbits. The description is as above. Format: in vivo, rabbit.
Text: as §1

As to `CC(C)C[C@@H](NC(=O)[C@@H](Cc1ccccc1)NC(=O)[C@H]1CCCN1C(=O)[C@@H](CCC(N)=O)NC(=O)[C@H](NC(=O)[C@H]1CCCN1C(=O)[C@@H](CCCNC(=N)N)NC(=O)[C@@H](CO)NC(=O)[C@@H](CCC(N)=O)NC(=O)[C@H](N)CC(=O)O)C(C)C)C(=O)N[C@H](CC(N)=O)C(=O)N[C@H](CC(C)C)C(=O)N[C@@H](C(=O)N[C@@H](C(=O)N1CCC[C@@H]1C(=O)N[C@H](CCCNC(=N)N)C(=O)N[C@H](CCCCN)C(=O)N1CCC[C@@H]1C(=O)N[C@H](CCCNC(=N)N)C(=O)N1CCC[C@@H]1C(=O)N1CCC[C@@H]1C(=O)N[C@H](CCCNC(=N)N)C(=O)N[C@H](CCCNC(=N)N)C(=O)N[C@H](CCCNC(=N)N)C(=O)N[C@H](CCC(N)=O)C(=O)N[C@H](CCCNC(=N)N)C(=O)N[C@H](CCCNC(=N)N)C(=O)N[C@H](CCCCN)C(=O)N[C@H](CCCCN)C(=O)N[C@H](CCCNC(=N)N)C(=O)NCC(=O)O)[C@H](C)O)[C@H](C)O` [XG-102], the “dose proportionality of AUC0-last” value in data set [1] is recorded as “increases in a more than linear proportion with dose in the tested dose range”. In addition, the MRT in data set [1] (80 ug/kg) is reported as 1.02 (14.7) h. For the same compound, the figures for the “No Observed Adverse Effect Level (NOAEL)” value with rats and in the data set with rabbits were “around 20 μg” and around 600 µg, respectively.
